Test results published in ChEMBL document CHEMBL1697781, “Assessment of the health effects of chemicals in humans: II. Construction of an adverse effects database for QSAR modeling” (Curr Drug Discov Technol, 2004).

How the values were obtained:
Settings in all cases: human; call rule not given here
Hepatotoxicity [1] = experiment: FDA HLAED, liver enzyme composite activity
Hepatotoxicity [2] = experiment: FDA HLAED, alkaline phosphatase increase
Hepatotoxicity [3] = experiment: FDA HLAED, serum glutamic oxaloacetic transaminase (SGOT) increase
Hepatotoxicity [4] = experiment: FDA HLAED, serum glutamic pyruvic transaminase (SGPT) increase
Hepatotoxicity [5] = experiment: FDA HLAED, lactate dehydrogenase (LDH) increase
Hepatotoxicity [6] = experiment: FDA HLAED, gamma-glutamyl transferase (GGT) increase
Throughout, for GGT Increase - Index Value: reference of the scale not given here.
Throughout, for LDH Increase - Index Value: reference of the scale not given here.

SMILES	Composite Activity - Active (Hepatotoxicity [1])	Composite Activity - Marginal (Hepatotoxicity [1])	Composite Activity - Score (Hepatotoxicity [1])	Alkaline Phosphatase Increase - Activity Score (Hepatotoxicity [2])	Alkaline Phosphatase Increase - Index Value (Hepatotoxicity [2])	Alkaline Phosphatase Increase - Number of Reports (Hepatotoxicity [2])	SGOT Increase - Activity Score (Hepatotoxicity [3])	SGOT Increase - Index Value (Hepatotoxicity [3])	SGOT Increase - Number of Reports (Hepatotoxicity [3])	SGPT Increase - Activity Score (Hepatotoxicity [4])	SGPT Increase - Index Value (Hepatotoxicity [4])	SGPT Increase - Number of Reports (Hepatotoxicity [4])	LDH Increase - Activity Score (Hepatotoxicity [5])	LDH Increase - Index Value (Hepatotoxicity [5])	LDH Increase - Number of Reports (Hepatotoxicity [5])	GGT Increase - Activity Score (Hepatotoxicity [6])	GGT Increase - Index Value (Hepatotoxicity [6])	GGT Increase - Number of Reports (Hepatotoxicity [6])	also measured
CC(Cc1ccc(O)c(O)c1)C(C)Cc1ccc(O)c(O)c1 (configuration not stated) [NORDIHYDROGUAIARETIC ACID]	0	0	Inactive	Inactive	0	< 4	Inactive	0	< 4	Inactive	0	< 4	Inactive	0	< 4	Inactive	0	< 4	–
CCn1cc(C(=O)O)c(=O)c2cc(F)c(N3CCNCC3)cc21 [NORFLOXACIN]	–	–	–	Active	6.3	>= 4	Active	5.6	>= 4	Marginally Active	3	>= 4	Marginally Active	3.7	>= 4	Inactive	0	< 4	Composite Activity - Active (Hepatotoxicity [1]; Liver): 2; Composite Activity - Marginal (Hepatotoxicity [1]; Liver): 2; Composite Activity - Score (Hepatotoxicity [1]; Liver): Active
CC1COc2c(N3CCN(C)CC3)c(F)cc3c(=O)c(C(=O)O)cn1c23 (configuration not stated) [OFLOXACIN]	0	0	Inactive	Inactive	1.2	>= 4	Inactive	1.9	>= 4	Inactive	2.1	>= 4	Inactive	1.2	>= 4	Inactive	0.5	< 4	–
Cc1cc2c(s1)Nc1ccccc1N=C2N1CCN(C)CC1 [OLANZAPINE]	3	1	Active	Marginally Active	3.7	>= 4	Active	16.5	>= 4	Active	15.5	>= 4	Inactive	2.1	>= 4	Active	9.1	>= 4	–
CN(C)CC/C=C1/c2ccccc2COc2ccc(CC(=O)O)cc21 [OLOPATADINE]	0	0	Inactive	Inactive	0	< 4	Inactive	0	< 4	Inactive	0	< 4	Inactive	0	< 4	Inactive	0	< 4	–
O=C(O)c1cc(/N=N/c2ccc(O)c(C(=O)O)c2)ccc1O [OLSALAZINE]	0	0	Inactive	Inactive	0.7	< 4	Inactive	2.2	< 4	Inactive	1.5	< 4	Inactive	0.7	< 4	Inactive	0	< 4	–
COc1ccc2[nH]c([S+]([O-])Cc3ncc(C)c(OC)c3C)nc2c1 (configuration not stated) [OMEPRAZOLE]	0	0	Inactive	Inactive	1.8	>= 4	Inactive	1.2	>= 4	Inactive	0.9	>= 4	Inactive	0.5	>= 4	Inactive	0.8	>= 4	–
Cc1nccn1CC1CCc2c(c3ccccc3n2C)C1=O (configuration not stated) [ONDANSETRON]	0	0	Inactive	Inactive	0.5	>= 4	Inactive	1.1	>= 4	Inactive	1.3	>= 4	Inactive	0.9	>= 4	Inactive	0	< 4	–
O=C(O)CCc1nc(-c2ccccc2)c(-c2ccccc2)o1 [OXAPROZIN]	0	0	Inactive	Inactive	0.2	< 4	Inactive	0.9	>= 4	Inactive	0.8	>= 4	Inactive	0.4	>= 4	Inactive	0.4	< 4	–
